# Measured values reported in patent US20240197726A1, “NOVEL TETRAHYDROISOQUINOLINE ALKALOID COMPOUND CONTAINING MACROCYCLE” (THE UNIVERSITY OF TOKYO, priority 2021, published 2024).
# Read-outs that look alike come from different tables or passages of the source.
# Tests used:
# Assay type in all cases: cell-based
# [1] = test system: HBC-4 breast cancer cells; assay: antitumor activity, sulforhodamine B cell growth assay, HBC-4; conditions: HBC-4, drug exposure 48 hours, read-out: GI50 value: 50% growth inhibitory concentration
# Method: (§1) The THIQ compound containing a macrocyclic structure of the present invention was administered to various cancer cell lines, and the antitumor activity (Go value) was observed. Specifically, verification was performed according to the literature (Yamori, T.; Matsunaga, A.; Sato, S.; Yamazaki, K.; Komi, A.; Ishizu, K. et al. Cancer Res. 1999, 59, 4042) by the following procedure.
# (§2) Cells were plated at an appropriate density in a 96-well plate in RPMI 1640 together with 5% fetal bovine serum, and adhered overnight. The cells were exposed to a drug for 48 hours. Then, according to the sulforhodamine B assay described by Skehan et al (Skehan P., Storeng R., Scudiero D., Monks A., McMahon J., Vistica D., Warren J. T., Bokesch H., Kenney S., Boyd M. R. J Natl. Cancer Inst, 1990, 82, 1107-1112), the cell growth rate was measured. The absorbance of the control well (C) and the test well (T) was measured at 525 nm. In addition, the time at which the drug was added was set as time 0, and the absorbance for the test well (T0) was measured. Using these measured values, the cell growth inhibitory effect (% growth=PG) was calculated by the following formula at each concentration of the drug.
# (§3) (T<T0): PG=100×[(T−T0)/T]
# (§4) The PG values determined above for each cell line were plotted against the concentration (logarithm) on a semi-logarithmic graph, and summarized for each visceral cancer. Concentrations at which the dose-response curve of each cell line crossed the horizontal line of PG=50%, 0%, or −50% were calculated. These concentrations were defined as Log GI50, Log TGI, and Log LC50. Actually, using two data points of the drug concentration before and after crossing each horizontal line, the drug concentration (logarithmic value) at the intersection of the straight line connecting the two points and the horizontal line for each PG was calculated.
# [2] = test system: HCT-15 colorectal cancer cells; assay: antitumor activity, sulforhodamine B cell growth assay, HCT-15; conditions: HCT-15, drug exposure 48 hours, read-out: GI50 value: 50% growth inhibitory concentration
# Method: as §1, §2, §3, §4
# [3] = test system: SF-295 central nervous system cancer cells; assay: antitumor activity, sulforhodamine B cell growth assay, SF-295; conditions: SF-295, drug exposure 48 hours, read-out: GI50 value: 50% growth inhibitory concentration
# Method: as §1, §2, §3, §4
# [4] = test system: KM-12 colorectal cancer cells; assay: antitumor activity, sulforhodamine B cell growth assay, KM-12; conditions: KM-12, drug exposure 48 hours, read-out: GI50 value: 50% growth inhibitory concentration
# Method: as §1, §2, §3, §4
# DMS273 lung cancer cells = assay: antitumor activity, sulforhodamine B cell growth assay, DMS273; conditions: DMS273, drug exposure 48 hours, read-out: GI50 value: 50% growth inhibitory concentration
# Method: as §1, §2, §3, §4
# [5] = test system: BSY-1 breast cancer cells; assay: antitumor activity, sulforhodamine B cell growth assay, BSY-1; conditions: BSY-1, drug exposure 48 hours; read-out: GI50 value: 50% growth inhibitory concentration
# Method: as §1, §2, §3, §4
# [6] = test system: MKN74 gastric cancer cells; assay: antitumor activity, sulforhodamine B cell growth assay, MKN74; conditions: MKN74, drug exposure 48 hours, read-out: GI50 value: 50% growth inhibitory concentration
# Method: as §1, §2, §3, §4
# A549 lung cancer cells = assay: antitumor activity, sulforhodamine B cell growth assay, A549; conditions: A549, drug exposure 48 hours, read-out: GI50 value: 50% growth inhibitory concentration
# Method: as §1, §2, §3, §4
# [7] = test system: MKN-B gastric cancer cells; assay: antitumor activity, sulforhodamine B cell growth assay, MKN-B; conditions: MKN-B, drug exposure 48 hours; read-out: GI50 value: 50% growth inhibitory concentration
# Method: as §1, §2, §3, §4
# DMS114 lung cancer cells = assay: antitumor activity, sulforhodamine B cell growth assay, DMS114; conditions: DMS114, drug exposure 48 hours, read-out: GI50 value: 50% growth inhibitory concentration
# Method: as §1, §2, §3, §4
# [8] = test system: PC-3 prostate cancer cells; assay: antitumor activity, sulforhodamine B cell growth assay, PC-3; conditions: PC-3, drug exposure 48 hours; read-out: GI50 value: 50% growth inhibitory concentration
# Method: as §1, §2, §3, §4
# [9] = test system: MDA-MB-231 breast cancer cells; assay: antitumor activity, sulforhodamine B cell growth assay, MDA-MB-231; conditions: MDA-MB-231, drug exposure 48 hours, read-out: GI50 value: 50% growth inhibitory concentration
# Method: as §1, §2, §3, §4
# OVCAR-3 cancer cells = assay: antitumor activity, sulforhodamine B cell growth assay, OVCAR-3; conditions: OVCAR-3, drug exposure 48 hours, read-out: GI50 value: 50% growth inhibitory concentration
# Method: as §1, §2, §3, §4
# [10] = test system: U251 central nervous system cancer cells; assay: antitumor activity, sulforhodamine B cell growth assay, U251; conditions: U251, drug exposure 48 hours, read-out: GI50 value: 50% growth inhibitory concentration
# Method: as §1, §2, §3, §4
# [11] = test system: OVCAR-5 cervical cancer cells; assay: antitumor activity, sulforhodamine B cell growth assay, OVCAR-5; conditions: OVCAR-5, drug exposure 48 hours, read-out: GI50 value: 50% growth inhibitory concentration
# Method: as §1, §2, §3, §4
# [12] = test system: NCI-H522 lung cancer cells; assay: antitumor activity, sulforhodamine B cell growth assay, NCI-H522; conditions: NCI-H522, drug exposure 48 hours, read-out: GI50 value: 50% growth inhibitory concentration
# Method: as §1, §2, §3, §4
# OVCAR-4 cancer cells = assay: antitumor activity, sulforhodamine B cell growth assay, OVCAR-4; conditions: OVCAR-4, drug exposure 48 hours, read-out: GI50 value: 50% growth inhibitory concentration
# Method: as §1, §2, §3, §4
# [13] = test system: MKN45 gastric cancer cells; assay: antitumor activity, sulforhodamine B cell growth assay, MKN45; conditions: MKN45, drug exposure 48 hours, read-out: GI50 value: 50% growth inhibitory concentration
# Method: as §1, §2, §3, §4
# [14] = test system: SF-268 central nervous system cancer cells; assay: antitumor activity, sulforhodamine B cell growth assay, SF-268; conditions: SF-268, drug exposure 48 hours, read-out: GI50 value: 50% growth inhibitory concentration
# Method: as §1, §2, §3, §4
# [15] = test system: DU-145 prostate cancer cells; assay: antitumor activity, sulforhodamine B cell growth assay, DU-145; conditions: DU-145, drug exposure 48 hours, read-out: GI50 value: 50% growth inhibitory concentration
# Method: as §1, §2, §3, §4
# OVCAR-8 cancer cells = assay: antitumor activity, sulforhodamine B cell growth assay, OVCAR-8; conditions: OVCAR-8, drug exposure 48 hours, read-out: GI50 value: 50% growth inhibitory concentration
# Method: as §1, §2, §3, §4
# [16] = test system: NCI-H23 lung cancer cells; assay: antitumor activity, sulforhodamine B cell growth assay, NCI-H23; conditions: NCI-H23, drug exposure 48 hours, read-out: GI50 value: 50% growth inhibitory concentration
# Method: as §1, §2, §3, §4
smiles,measurement,setting,value
COc1c(C)cc2c(c1O)[C@@H]1[C@@H]3Cc4c5c(C)c6c(c4C(CNC(=O)[C@H](C)N(C)CC#CCO5)N3[C@@H](C#N)[C@H](C2)N1C)OCO6 [Compound 29],GI50,[1]; HBC4,1.5 nM
same,GI50,[2]; Homo sapiens,3.9 nM
same,GI50,[3]; Homo sapiens,3.4 nM
same,GI50,"[4]; Homo sapiens, KM12",3.1 nM
same,GI50,"DMS273 lung cancer cells; Homo sapiens, DMS-273",1.1 nM
same,GI50,[5],0.6 nM
same,GI50,"[6]; Homo sapiens, MKN-74",3.7 nM
same,GI50,A549 lung cancer cells; Homo sapiens,3.4 nM
same,GI50,[7],3 nM
same,GI50,"DMS114 lung cancer cells; Homo sapiens, DMS-114",0.89 nM
same,GI50,[8],3 nM
same,GI50,[9]; Homo sapiens,2.3 nM
same,GI50,OVCAR-3 cancer cells; Homo sapiens,2.6 nM
same,GI50,"[10]; Homo sapiens, U-251",1.4 nM
same,GI50,[11]; Homo sapiens,3.2 nM
same,GI50,[12]; Homo sapiens,0.6 nM
same,GI50,OVCAR-4 cancer cells; Homo sapiens,3.5 nM
same,GI50,"[13]; Homo sapiens, MKN-45",1.3 nM
same,GI50,[14]; Homo sapiens,2.8 nM
same,GI50,[15]; Homo sapiens,3.5 nM
same,GI50,OVCAR-8 cancer cells; Homo sapiens,2.6 nM
same,GI50,[16]; Homo sapiens,2.6 nM
C=C1/C=C/CN[C@@H](C)C(=O)NCC2c3c(c(c(C)c4c3OCO4)OC1)C[C@H]1[C@H]3c4c(cc(C)c(OC)c4O)C[C@@H]([C@H](C#N)N21)N3C [Compound 33],GI50,[1],32 nM
same,GI50,[2],400 nM
same,GI50,[3],270 nM
same,GI50,[4],110 nM
same,GI50,DMS273 lung cancer cells,140 nM
same,GI50,[5],18 nM
same,GI50,[6],260 nM
same,GI50,A549 lung cancer cells,360 nM
same,GI50,[7],220 nM
same,GI50,DMS114 lung cancer cells,31 nM
same,GI50,[8],190 nM
same,GI50,[9],52 nM
same,GI50,OVCAR-3 cancer cells,70 nM
same,GI50,[10],55 nM
same,GI50,[11],310 nM
same,GI50,[12],25 nM
same,GI50,OVCAR-4 cancer cells,400 nM
same,GI50,[13],41 nM
same,GI50,[14],110 nM
same,GI50,[15],370 nM
same,GI50,OVCAR-8 cancer cells,180 nM
same,GI50,[16],93 nM
